Values joined by “and” are separate entries in the source; they are usually repeats but may differ in a detail not shown here. Identical values can stand only once. Toxic doses and inconclusive results are not listed. Rule for the calls: active = survival T/C of 150% or more; inactive = T/C below 125% in these data.
Test system: P388 leukemia ip, CD2F1 mice, survival T/C
Test: NCI In Vivo Anticancer Drug Screen. Data for tumor model P388 Leukemia (intraperitoneal) in CD2F1 (CDF1) mice
Conditions: endpoint: median survival time, higher = longer survival
Summary of the method: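 Mice carrying the transplanted tumor received test compound or vehicle. Survival was recorded in each group, and the value is the treated-group measurement divided by that of the vehicle-treated control group.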

[1] = dose: 50.0 mg/kg/injection, schedule: Q01DX009 (ip), vehicle: saline
[2] = dose: 100.0 mg/kg/injection, schedule: Q01DX009 (ip), vehicle: saline
[3] = dose: 60.0 mg/kg/injection, schedule: Q01DX005 (ip), vehicle: Klucel (hydroxypropylcellulose) (HPC)
[4] = dose: 120.0 mg/kg/injection, schedule: Q01DX005 (ip), vehicle: Klucel (hydroxypropylcellulose) (HPC)
[5] = dose: 240.0 mg/kg/injection, schedule: Q01DX005 (ip), vehicle: Klucel (hydroxypropylcellulose) (HPC)
[6] = dose: 25.0 mg/kg/injection, schedule: Q01DX009 (ip), vehicle: water
[7] = dose: 50.0 mg/kg/injection, schedule: Q01DX009 (ip), vehicle: water
[8] = dose: 100.0 mg/kg/injection, schedule: Q01DX009 (ip), vehicle: water
[9] = dose: 200.0 mg/kg/injection, schedule: Q01DX009 (ip), vehicle: water
[10] = dose: 60.0 mg/kg/injection, schedule: Q01DX005 (ip), vehicle: saline with Tween-80
[11] = dose: 100.0 mg/kg/injection, schedule: Q04DX003 (ip), vehicle: saline with Tween-80

Measured: T/C

O=c1[nH]cc(CS)c(=O)[nH]1
inactive: dose: 12.5 mg/kg/injection, schedule: Q01DX009 (ip), vehicle: saline 102 % of control | dose: 25.0 mg/kg/injection, schedule: Q01DX009 (ip), vehicle: saline 108 % of control | [1] 100 % of control and 102 % of control | [2] 103 % of control

NC(N)=NS(=O)(=O)c1ccccc1[N+](=O)[O-]
inactive: dose: 7.5 mg/kg/injection, schedule: Q01DX009 (ip), vehicle: saline with Tween-80 106 % of control | dose: 15.0 mg/kg/injection, schedule: Q01DX009 (ip), vehicle: saline with Tween-80 113 % of control | dose: 30.0 mg/kg/injection, schedule: Q01DX009 (ip), vehicle: saline with Tween-80 120 % of control

CCCCCc1c(C)[nH]n(C(N)=NCCSCc2nc[nH]c2C)c1=O
inactive: [3] 100 % of control | [4] 102 % of control | [5] 91 % of control

O=[N+]([O-])c1cccc(NC(c2ccccc2)S(=O)(=O)O)c1 (centres undefined)
inactive: [1] 104 % of control | [2] 114 % of control | dose: 200.0 mg/kg/injection, schedule: Q01DX009 (ip), vehicle: saline 106 % of control

COC(=O)CCCNC(C)C
inactive: [6] 97 % of control | [7] 100 % of control | [8] 98 % of control | [9] 99 % of control | dose: 400.0 mg/kg/injection, schedule: Q01DX009 (ip), vehicle: water 99 % of control

COC(=O)C1(C(=O)O)ON1C(C)(C)C (centres undefined)
inactive: dose: 50.0 mg/kg/injection, schedule: Q01DX005 (ip), vehicle: Klucel (hydroxypropylcellulose) (HPC) 100 % of control | dose: 100.0 mg/kg/injection, schedule: Q01DX005 (ip), vehicle: Klucel (hydroxypropylcellulose) (HPC) 100 % of control | dose: 200.0 mg/kg/injection, schedule: Q01DX005 (ip), vehicle: Klucel (hydroxypropylcellulose) (HPC) 99 % of control

O=NCC(=O)OCc1ccccc1
inactive: dose: 12.5 mg/kg/injection, schedule: Q01DX009 (ip), vehicle: water 95 % of control | [6] 87 % of control | [7] 95 % of control | [8] 99 % of control | [9] 99 % of control

O=[N+]([O-])c1ccc(/C=C/C=C\c2ccc(S(=O)(=O)F)cc2Cl)cc1
inactive: [10] 94 % of control | dose: 120.0 mg/kg/injection, schedule: Q01DX005 (ip), vehicle: saline with Tween-80 96 % of control | dose: 240.0 mg/kg/injection, schedule: Q01DX005 (ip), vehicle: saline with Tween-80 95 % of control

CCC(=O)NCC(=O)O
inactive: dose: 3.13 mg/kg/injection, schedule: Q01DX009 (ip), vehicle: saline with Tween-80 100 % of control | dose: 6.25 mg/kg/injection, schedule: Q01DX009 (ip), vehicle: saline with Tween-80 104 % of control and 86 % of control | dose: 6.25 mg/kg/injection, schedule: Q04DX003 (ip), vehicle: saline with Tween-80 110 % of control | dose: 12.5 mg/kg/injection, schedule: Q01DX009 (ip), vehicle: saline with Tween-80 109 % of control | dose: 12.5 mg/kg/injection, schedule: Q04DX003 (ip), vehicle: saline with Tween-80 100 % of control | dose: 25.0 mg/kg/injection, schedule: Q04DX003 (ip), vehicle: saline with Tween-80 100 % of control

CSC(C#N)(Cc1ccccc1)N1CCOCC1 (centres undefined)
inactive: [11] 107 % of control | dose: 200.0 mg/kg/injection, schedule: Q04DX003 (ip), vehicle: saline with Tween-80 103 % of control | dose: 400.0 mg/kg/injection, schedule: Q04DX003 (ip), vehicle: saline with Tween-80 103 % of control

COc1cc2c(cc1OC)NC(=O)C2
inactive: dose: 50.0 mg/kg/injection, schedule: Q04DX003 (ip), vehicle: saline with Tween-80 97 % of control | [11] 98 % of control

Nc1[nH]c(=S)[nH]c(=O)c1NS(=O)(=O)c1ccccc1[N+](=O)[O-]
inactive: dose: 30.0 mg/kg/injection, schedule: Q01DX005 (ip), vehicle: Klucel (hydroxypropylcellulose) (HPC) 100 % of control and 94 % of control | [3] 98 % of control and 100 % of control | [4] 100 % of control and 97 % of control | [5] 100 % of control

CC(C)(C)OC(=O)NC1CN(OCc2ccccc2)C1=O (centres undefined)
inactive: dose: 50.0 mg/kg/injection, schedule: Q01DX005 (ip), vehicle: saline with Tween-80 100 % of control | dose: 100.0 mg/kg/injection, schedule: Q01DX005 (ip), vehicle: saline with Tween-80 94 % of control | dose: 200.0 mg/kg/injection, schedule: Q01DX005 (ip), vehicle: saline with Tween-80 89 % of control

CCOC(=O)C1=C(c2ccccc2)N=c2ccccc2=S1C (centres undefined)
inactive: dose: 15.0 mg/kg/injection, schedule: Q01DX005 (ip), vehicle: saline with Tween-80 96 % of control | dose: 30.0 mg/kg/injection, schedule: Q01DX005 (ip), vehicle: saline with Tween-80 99 % of control | [10] 98 % of control and 94 % of control

C[N+]1(C)N=C([O-])N(Cc2ccccc2)C1=O
inactive: dose: 100.0 mg/kg/injection, schedule: Q04DX003 (ip), vehicle: saline 118 % of control | dose: 200.0 mg/kg/injection, schedule: Q04DX003 (ip), vehicle: saline 106 % of control

C/C(=N/NC(=O)c1ccccc1)c1ccccc1O
inactive: dose: 50.0 mg/kg/injection, schedule: Q01DX009 (ip), vehicle: saline with Tween-80 104 % of control | dose: 100.0 mg/kg/injection, schedule: Q01DX009 (ip), vehicle: saline with Tween-80 100 % of control | dose: 200.0 mg/kg/injection, schedule: Q01DX009 (ip), vehicle: saline with Tween-80 104 % of control | dose: 400.0 mg/kg/injection, schedule: Q01DX009 (ip), vehicle: saline with Tween-80 107 % of control

CN=C(N)N/N=C/COc1ccc(C)cc1
inactive: dose: 60.0 mg/kg/injection, schedule: Q01DX005 (ip), vehicle: saline 92 % of control | dose: 120.0 mg/kg/injection, schedule: Q01DX005 (ip), vehicle: saline 94 % of control

Cc1ccc(OP(=O)(Oc2ccc(C)cc2)Oc2ccc(C)cc2)cc1.Cc1ccc(OP(=O)(Oc2ccc(C)cc2)Oc2ccc(C)cc2)cc1.Cc1ccc(OP(=O)(Oc2ccc(C)cc2)Oc2ccc(C)cc2)cc1.Cc1ccc(OP(=O)(Oc2ccc(C)cc2)Oc2ccc(C)cc2)cc1.[O-][Cl+3]([O-])([O-])O.[Zn+2]
inactive: dose: 100.0 mg/kg/injection, schedule: Q04DX003 (ip), vehicle: Klucel (hydroxypropylcellulose) (HPC) 98 % of control | dose: 200.0 mg/kg/injection, schedule: Q04DX003 (ip), vehicle: Klucel (hydroxypropylcellulose) (HPC) 102 % of control

COc1cc(C(O)C(CO)Oc2c(OC)cc(C3OCC4C(c5cc(OC)c(O)c(OC)c5)OCC34)cc2OC)ccc1O (centres undefined)
inactive: dose: 5.0 mg/kg/injection, schedule: Q01DX005 (ip), vehicle: sodium bicarbonate 107 % of control | dose: 10.0 mg/kg/injection, schedule: Q01DX005 (ip), vehicle: sodium bicarbonate 109 % of control | dose: 20.0 mg/kg/injection, schedule: Q01DX005 (ip), vehicle: sodium bicarbonate 106 % of control | dose: 40.0 mg/kg/injection, schedule: Q01DX005 (ip), vehicle: sodium bicarbonate 100 % of control
